In patent US12240862B2, “Inhibitors of peptidylarginine deiminases” (Gilead Sciences, Inc., priority 2020, dated 2025):
pIC50: −log10 of the molar value.

Each molecule was assayed against T1, human PAD4 (Homo sapiens, UniProt Q9UM07) (assay: In vitro PAD4 BAEE biochemical assay). Conditions: human PAD4, BAEE substrate; 5 nM PAD4, 2 mM calcium chloride, 3 mM BAEE; geometric mean of multiple experiments.
T1 construct: human PAD4 (NM_012387), A2P663, was PCR amplified; His-SUMO (N, cleaved yes); made in house; host or cells: E. coli BL21(DE3)
T1 sequence (Q9UM07 2-663): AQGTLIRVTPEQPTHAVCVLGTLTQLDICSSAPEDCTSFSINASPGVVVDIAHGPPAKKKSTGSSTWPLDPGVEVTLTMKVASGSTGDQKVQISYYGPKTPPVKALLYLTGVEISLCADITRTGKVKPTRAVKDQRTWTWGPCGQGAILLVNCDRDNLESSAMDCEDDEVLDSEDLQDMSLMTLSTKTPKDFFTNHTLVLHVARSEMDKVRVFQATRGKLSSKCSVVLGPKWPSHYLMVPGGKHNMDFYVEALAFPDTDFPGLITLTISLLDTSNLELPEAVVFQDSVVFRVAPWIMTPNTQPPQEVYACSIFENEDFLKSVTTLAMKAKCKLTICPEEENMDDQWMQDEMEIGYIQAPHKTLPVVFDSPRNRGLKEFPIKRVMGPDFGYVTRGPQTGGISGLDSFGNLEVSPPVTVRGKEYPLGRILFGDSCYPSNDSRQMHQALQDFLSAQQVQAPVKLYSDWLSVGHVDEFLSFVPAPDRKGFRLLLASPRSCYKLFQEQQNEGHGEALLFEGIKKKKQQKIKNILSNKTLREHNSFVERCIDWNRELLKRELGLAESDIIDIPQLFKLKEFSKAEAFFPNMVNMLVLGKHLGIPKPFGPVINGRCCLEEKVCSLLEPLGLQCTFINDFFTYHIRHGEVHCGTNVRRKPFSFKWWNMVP
Outline: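 Tag-free recombinant hPAD4 (5 nM), 2 mM CaCl2, 3 mM BAEE, 50 mM MOPS pH 7.6, 2 mM DTT; 30 min compound preincubation, 2 h reaction, all 25 °C. EDTA quench; ammonia read via o-phthalaldehyde amine coupling, 1 h.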
In the case of `COc1cc(C(=O)N2[C@H]3CC[C@@H]2[C@H](N)C3)cc2nc(-c3cc4ccc([C@@H](C)NC(=O)C5(C(F)(F)F)CCC5)nc4n3CC3CC3)c(C)n12` [Example 44, ~{N}-[(1~{R})-1-[2-[7-[(1~{R},2~{R},4~{S})-2-amino-7-azabicyclo[2.2.1]heptane-7-carbonyl]-5-methoxy-3-methylimidazo [1,2-a]pyridin-2-yl]-1-(cyclopropylmethyl)pyrrolo[2,3-b]pyridin-6-yl]ethyl]-1-(trifluoromethyl) cyclobutane-1-carboxamide], the pIC50 was 7.25. `COc1cc(C(=O)N2[C@H]3CC[C@@H]2[C@H](N)C3)cc2nc(-c3cc4ccc(C(C)(O)C(C)C)nc4n3CC3CC3)c(C)n12` (stereo partly shown) [Example 571, [(1~{R},2~{R},4~{S})-2-amino-7-azabicyclo [2.2.1]heptan-7-yl]-[2-[1-(cyclopropylmethyl)-6-(2-hydroxy-3-methylbutan-2-yl)pyrrolo[2,3-b]pyridin-2-yl]-5-methoxy-3-methylimidazo[1,2-a]pyridin-7-yl]methanone] showed a pIC50 of 6.33. With `COc1cc(C(=O)N2[C@H]3CC[C@@H]2[C@H](N)C3)cc2nc(-c3cc4ccc([C@@H](C)NC(=O)[C@@H](C)O)nc4n3CC3CC3)c(C)n12` [Example 91, (2~{R})-~{N}-[(1~{R})-1-[2-[7-[(1~{R},2~{R},4~{S})-2-amino-7-azabicyclo[2.2.1]heptane-7-carbonyl]-5-methoxy-3-methylimidazo [1,2-a]pyridin-2-yl]-1-(cyclopropylmethyl)pyrrolo [2,3-b]pyridin-6-yl]ethyl]-2-hydroxypropanamide] the pIC50 was 7.37. `CCc1ccc2cc(-c3nc4cc(C(=O)N5[C@H]6CC[C@@H]5[C@H](N)C6)cc(OC)n4c3C)n(-c3cnc(C)s3)c2n1` [Example 511, [(1~{R},2~{R},4~{S})-2-amino-7-azabicyclo [2.2.1]heptan-7-yl]-[2-[6-ethyl-1-(2-methyl-1,3-thiazol-5-yl)pyrrolo [2,3-b]pyridin-2-yl]-5-methoxy-3-methylimidazo [1,2-a]pyridin-7-yl] methanone] showed a pIC50 of 5.33. `COc1cc(C(=O)N2[C@@H]3CC[C@H]2C[C@@H](N)C3)cc2nc(-c3cc4ccc(N(C(F)F)S(C)(=O)=O)nc4n3CC3CC3)c(C)n12` [Example 326, ~{N}-[2-[7-[(1~{R}, 5~{S})-3-amino-8-azabicyclo[3.2.1]octane-8-carbonyl]-5-methoxy-3-methylimidazo[1,2-a]pyridin-2-yl]-1-(cyclopropylmethyl)pyrrolo[2,3-b]pyridin-6-yl]-~{N}-(difluoromethyl) methanesulfonamide] was tested, and the pIC50 was 5.45. With `COc1cc(C(=O)N2[C@H]3CC[C@@H]2[C@H](N)C3)cc2nc(-c3cc4ccc(C5=CC(=O)NCC5)nc4n3CC3CC3)c(C)n12` [Example 561, 4-[2-[7-[(1~{R},2~{R}, 4~{S})-2-amino-7-azabicyclo[2.2.1]heptane-7-carbonyl]-5-methoxy-3-methylimidazo[1,2-a]pyridin-2-yl]-1-(cyclopropylmethyl)pyrrolo[2,3-b]pyridin-6-yl]-2,3-dihydro-1~{H}-pyridin-6-one] the pIC50 was 6.71. For `COc1cc(C(=O)N2C[C@H]3CC[C@@H]2[C@H](N)C3)cc2nc(-c3cc4ccc(N(C(F)F)S(C)(=O)=O)nc4n3CC3CC3)c(C)n12` [Example 376, ~{N}-[2-[7-[(1~{R},4~{S}, 6~{R})-6-amino-2-azabicyclo[2.2.2]octane-2-carbonyl]-5-methoxy-3-methylimidazo[1,2-a]pyridin-2-yl]-1-(cyclopropylmethyl)pyrrolo [2,3-b]pyridin-6-yl]-~{N}-(difluoromethyl) methanesulfonamide], the pIC50 was 6.39. `COc1cc(C(=O)N2[C@H]3CC[C@@H]2[C@H](N)C3)cc2nc(-c3cc4ccc([C@@H](C)NC(=O)N(C)Cc5cccc(=O)[nH]5)nc4n3CC3CC3)c(C)n12` [Example 220, 3-[(1~{R})-1-[2-[7-[(1~{R},2~{R},4~{S})-2-amino-7-azabicyclo[2.2.1]heptane-7-carbonyl]-5-methoxy-3-methylimidazo [1,2-a]pyridin-2-yl]-1-(cyclopropylmethyl)pyrrolo [2,3-b]pyridin-6-yl]ethyl]-1-methyl-1-[(6-oxo-1~{H}-pyridin-2-yl)methyl]urea] was tested, and the pIC50 was 7.10. Work on `COc1cc(C(=O)N2[C@H]3CC[C@@H]2[C@H](N)C3)cc2nc(-c3cc4ccc([C@@H](C)Nc5cnn(C(C)(C)C)c5)nc4n3CC3CC3)c(C)n12` [Example 260, [(1~{R},2~{R},4~{S})-2-amino-7-azabicyclo[2.2.1]heptan-7-yl]-[2-[6-[(1~{R})-1-[(1-~{tert}-butylpyrazol-4-yl)amino]ethyl]-1-(cyclopropylmethyl)pyrrolo [2,3-b]pyridin-2-yl]-5-methoxy-3-methylimidazo [1,2-a]pyridin-7-yl] methanone] yielded a pIC50 of 6.91. `COc1cc(C(=O)N[C@H]2CNC[C@H](F)C2)cc2nc(-c3cc4ccc(N(C(F)F)S(C)(=O)=O)nc4n3CC3CC3)c(C)n12` [Example 306, 2-[1-(cyclopropylmethyl)-6-[difluoromethyl (methylsulfonyl)amino]pyrrolo[2,3-b]pyridin-2-yl]-~{N}-[(3~{R},5~{R})-5-fluoropiperidin-3-yl]-5-methoxy-3-methylimidazo [1,2-a]pyridine-7-carboxamide] gave a pIC50 of 5.79. `COc1cc(C(=O)N2C[C@H]3CC[C@@H]2[C@@H](N)C3)cc2nc(-c3cc4ccc(N(C(F)F)S(C)(=O)=O)nc4n3CC3CC3)c(C)n12` [Example 368, ~{N}-[2-[7-[(1~{R},4~{S}, 6~{S})-6-amino-2-azabicyclo[2.2.2]octane-2-carbonyl]-5-methoxy-3-methylimidazo[1,2-a]pyridin-2-yl]-1-(cyclopropylmethyl)pyrrolo [2,3-b]pyridin-6-yl]-~{N}-(difluoromethyl) methanesulfonamide] gave a pIC50 of 4.36. Molecule `COc1cc(C(=O)N2[C@@H]3CCC[C@H]2[C@@H](N)C3)cc2nc(-c3cc4ccc(N(C(F)F)S(C)(=O)=O)nc4n3CC3CC3)c(C)n12` [Example 331, N-[2-[7-[(1R,5S,6S)-6-amino-8-azabicyclo[3.2.1]octane-8-carbonyl]-5-methoxy-3-methyl-imidazo [1,2-a]pyridin-2-yl]-1-(cyclopropylmethyl)pyrrolo [2,3-b]pyridin-6-yl]-N-(difluoromethyl) methanesulfonamide] has a pIC50 of 5.85. `COc1cc(C(=O)N2[C@H]3CC[C@@H]2[C@H](N)C3)cc2nc(-c3cc4ccc([C@@H](C)NC(=O)Nc5ccccc5)nc4n3CC3CC3)c(C)n12` [Example 239, 1-[(1~{R})-1-[2-[7-[(1~{R},2~{R},4~{S})-2-amino-7-azabicyclo[2.2.1]heptane-7-carbonyl]-5-methoxy-3-methylimidazo [1,2-a]pyridin-2-yl]-1-(cyclopropylmethyl)pyrrolo [2,3-b]pyridin-6-yl]ethyl]-3-phenylurea] gave a pIC50 of 7.09. With `CCc1c(-c2cc3ccc(N(C(F)F)S(C)(=O)=O)nc3n2CC2CC2)nc2cc(C(=O)N3CCC[C@@H](N)C3)cc(OC)n12` [Example 399, ~{N}-[2-[7-[(3~{R})-3-aminopiperidine-1-carbonyl]-3-ethyl-5-methoxyimidazo[1,2-a]pyridin-2-yl]-1-(cyclopropylmethyl)pyrrolo [2,3-b]pyridin-6-yl]-~{N}-(difluoromethyl) methanesulfonamide] the pIC50 was 6.55. Work on `COc1cc(C(=O)N2[C@H]3CC[C@@H]2[C@H](N)C3)cc2nc(-c3cc4ccc([C@@H](C)NC(=O)C5(OC)CC5)nc4n3CC3CC3)c(C)n12` [Example 42, ~{N}-[(1~{R})-1-[2-[7-[(1~{R},2~{R},4~{S})-2-amino-7-azabicyclo [2.2.1]heptane-7-carbonyl]-5-methoxy-3-methylimidazo [1,2-a]pyridin-2-yl]-1-(cyclopropylmethyl)pyrrolo[2,3-b]pyridin-6-yl]ethyl]-1-methoxycyclopropane-1-carboxamide] yielded a pIC50 of 7.63. Molecule `CNC(=O)CC(C)(C)c1ccc2cc(-c3nc4cc(C(=O)N5[C@H]6CC[C@@H]5[C@H](N)C6)cc(OC)n4c3C)n(CC3CC3)c2n1` [Example 539, 3-[2-[7-[(1~{R},2~{R}, 4~{S})-2-amino-7-azabicyclo[2.2.1]heptane-7-carbonyl]-5-methoxy-3-methylimidazo[1,2-a]pyridin-2-yl]-1-(cyclopropylmethyl)pyrrolo[2,3-b]pyridin-6-yl]-~{N},3-dimethylbutanamide] has a pIC50 of 7.23. Work on `COc1cc(C(=O)N2[C@H]3CC[C@@H]2[C@H](N)C3)cc2nc(-c3cc4ccc([C@@H](C)NC(=O)NCc5ccccc5)nc4n3CC3CC3)c(C)n12` [Example 233, 1-[(1~{R})-1-[2-[7-[(1~{R},2~{R},4~{S})-2-amino-7-azabicyclo[2.2.1]heptane-7-carbonyl]-5-methoxy-3-methylimidazo [1,2-a]pyridin-2-yl]-1-(cyclopropylmethyl)pyrrolo [2,3-b]pyridin-6-yl]ethyl]-3-benzylurea] yielded a pIC50 of 6.99. `CCc1c(-c2cc3ccc(N(C(F)F)S(C)(=O)=O)nc3n2CC2CC2)nc2cc(C(=O)N3C[C@H](N)CC[C@@H]3C)ccn12` [Example 406, ~{N}-[2-[7-[(2~{S},5~{R})-5-amino-2-methylpiperidine-1-carbonyl]-3-ethylimidazo [1,2-a]pyridin-2-yl]-1-(cyclopropylmethyl)pyrrolo [2,3-b]pyridin-6-yl]-~{N}-(difluoromethyl) methanesulfonamide] gave a pIC50 of 6.71. Molecule `COc1cc(C(=O)N2C[C@@H](F)[C@@H](N)C2)cc2nc(-c3cc4ccc(N(C(F)F)S(C)(=O)=O)nc4n3CC3CC3)c(C)n12` [Example 291, ~{N}-[2-[7-[(3~{S}, 4~{R})-3-amino-4-fluoropyrrolidine-1-carbonyl]-5-methoxy-3-methylimidazo [1,2-a]pyridin-2-yl]-1-(cyclopropylmethyl)pyrrolo [2,3-b]pyridin-6-yl]-~{N}-(difluoromethyl) methanesulfonamide] has a pIC50 of 5.20.
